# “And” between values parts separate entries of the source, which are not always exact repeats. Equal entries are not always repeated. Inconclusive results and toxic doses are left out.
# Test system: BDF1 mice, P388 leukemia ip, median survival T/C
# Test: NCI In Vivo Anticancer Drug Screen. Data for tumor model P388 Leukemia (intraperitoneal) in B6D2F1 (BDF1) mice
# Conditions: endpoint: median survival time, higher = longer survival
# Method in brief: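 Each value expresses how treatment altered survival: treated-mouse outcome over vehicle-mouse outcome, both groups bearing the transplanted tumour.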
# [1] = dose: 25.0 mg/kg/injection, schedule: Q01DX009 (ip), vehicle: saline
# [2] = dose: 100.0 mg/kg/injection, schedule: Q01DX009 (ip), vehicle: saline
# [3] = dose: 100.0 mg/kg/injection, schedule: Q04DX003 (ip), vehicle: saline
# [4] = dose: 50.0 mg/kg/injection, schedule: Q01DX009 (ip), vehicle: saline
# [5] = dose: 100.0 mg/kg/injection, schedule: Q04DX003 (ip), vehicle: saline with Tween-80
# [6] = dose: 400.0 mg/kg/injection, schedule: Q04DX003 (ip), vehicle: saline with Tween-80
# [7] = dose: 50.0 mg/kg/injection, schedule: Q01DX009 (ip), vehicle: saline with Tween-80
# [8] = dose: 100.0 mg/kg/injection, schedule: Q01DX009 (ip), vehicle: saline with Tween-80
# [9] = dose: 200.0 mg/kg/injection, schedule: Q01DX009 (ip), vehicle: saline with Tween-80
structure (smiles),measurement,setting,value
Cc1cccc(Br)[n+]1[O-],T/C,[1],90 % of control
same,T/C,"dose: 25.0 mg/kg/injection, schedule: Q04DX003 (ip), vehicle: saline",95 % of control
same,T/C,"dose: 50.0 mg/kg/injection, schedule: Q01DX001 (ip), vehicle: saline",100 % of control
same,T/C,[2],95 % of control
same,T/C,[3],95 % of control
same,T/C,"dose: 200.0 mg/kg/injection, schedule: Q01DX001 (ip), vehicle: saline",100 % of control
Cn1cncc1CC(Cl)CO (stereo unspecified),T/C,[1],100 % of control
same,T/C,[4],99 % of control
same,T/C,[2],103 % of control
ClC1(Cl)Cc2ccccc21,T/C,[5],109 % of control
same,T/C,"dose: 266.0 mg/kg/injection, schedule: Q04DX003 (ip), vehicle: saline with Tween-80",108 % of control
same,T/C,[6],108 % of control
same,T/C,"dose: 600.0 mg/kg/injection, schedule: Q04DX003 (ip), vehicle: saline with Tween-80",120 % of control
C[C@@H]1O[C@@H](O[C@H]2CC[C@]3(C=O)[C@H]4CC[C@]5(C)[C@@H](c6ccc(=O)oc6)CC[C@]5(O)[C@@H]4CC[C@]3(O)C2)[C@H](O)[C@H](O)[C@H]1O[C@@H]1O[C@H](CO)[C@@H](O)[C@H](O)[C@H]1O,T/C,"dose: 0.6 mg/kg/injection, schedule: Q01DX010 (ip), vehicle: carboxymethylcellulose (CMC)",95 % of control
same,T/C,"dose: 1.2 mg/kg/injection, schedule: Q01DX010 (ip), vehicle: carboxymethylcellulose (CMC)",104 % of control
same,T/C,"dose: 2.5 mg/kg/injection, schedule: Q01DX010 (ip), vehicle: carboxymethylcellulose (CMC)",95 % of control and 120 % of control
same,T/C,"dose: 5.0 mg/kg/injection, schedule: Q01DX010 (ip), vehicle: carboxymethylcellulose (CMC)",100 % of control
Cc1c2ccncc2c(C)c2c1[nH]c1ccccc12,T/C,"dose: 10.0 mg/kg/injection, schedule: Q01DX010 (ip), vehicle: saline",163 % of control
same,T/C,"dose: 14.4 mg/kg/injection, schedule: Q04DX003 (ip), vehicle: clinical formulation",117 % of control
same,T/C,"dose: 15.0 mg/kg/injection, schedule: Q01DX009 (ip), vehicle: water",175 % of control
same,T/C,"dose: 15.0 mg/kg/injection, schedule: Q04DX003 (ip), vehicle: water",166 % of control
same,T/C,"dose: 20.0 mg/kg/injection, schedule: Q01DX010 (ip), vehicle: saline",159 % of control and 179 % of control
same,T/C,"dose: 21.6 mg/kg/injection, schedule: Q04DX003 (ip), vehicle: water",172 % of control and 176 % of control
same,T/C,"dose: 24.0 mg/kg/injection, schedule: Q04DX003 (ip), vehicle: clinical formulation",184 % of control
same,T/C,"dose: 30.0 mg/kg/injection, schedule: Q04DX003 (ip), vehicle: water",208 % of control
same,T/C,"dose: 36.0 mg/kg/injection, schedule: Q04DX003 (ip), vehicle: water",235 % of control and 215 % of control
same,T/C,"dose: 40.0 mg/kg/injection, schedule: Q01DX010 (ip), vehicle: saline",150 % of control
same,T/C,"dose: 40.0 mg/kg/injection, schedule: Q04DX003 (ip), vehicle: clinical formulation",208 % of control
same,T/C,"dose: 100.0 mg/kg/injection, schedule: Q04DX002 (ip), vehicle: Klucel (hydroxypropylcellulose) (HPC)",200 % of control
same,T/C,"dose: 120.0 mg/kg/injection, schedule: Q04DX003 (ip), vehicle: water",100 % of control
same,T/C,"dose: 200.0 mg/kg/injection, schedule: Q04DX002 (ip), vehicle: Klucel (hydroxypropylcellulose) (HPC)",190 % of control
same,T/C,"dose: 400.0 mg/kg/injection, schedule: Q04DX002 (ip), vehicle: Klucel (hydroxypropylcellulose) (HPC)",90 % of control
Cc1ccc(S(=O)C(C)C(Cl)c2ccccc2)cc1 (stereo unspecified),T/C,[7],98 % of control
same,T/C,[8],106 % of control
same,T/C,[9],100 % of control
COc1cc2c[n+](C)c3c4cc(OC)c(OC)cc4ccc3c2cc1OC,T/C,"dose: 3.12 mg/kg/injection, schedule: Q01DX009 (ip), vehicle: water",98 % of control
same,T/C,"dose: 6.25 mg/kg/injection, schedule: Q01DX009 (ip), vehicle: water",112 % of control
same,T/C,"dose: 12.5 mg/kg/injection, schedule: Q01DX009 (ip), vehicle: water",118 % of control
same,T/C,"dose: 25.0 mg/kg/injection, schedule: Q01DX009 (ip), vehicle: other",153 % of control
same,T/C,"dose: 25.0 mg/kg/injection, schedule: Q01DX009 (ip), vehicle: water",120 % of control
same,T/C,"dose: 34.0 mg/kg/injection, schedule: Q01DX009 (ip), vehicle: saline",159 % of control
same,T/C,"dose: 50.0 mg/kg/injection, schedule: Q01DX009 (ip), vehicle: other",174 % of control
same,T/C,[4],188 % of control
same,T/C,"dose: 50.0 mg/kg/injection, schedule: Q01DX009 (ip), vehicle: water",100 % of control
same,T/C,"dose: 50.0 mg/kg/injection, schedule: Q04DX003 (ip), vehicle: water",103 % of control
same,T/C,"dose: 52.0 mg/kg/injection, schedule: Q01DX009 (ip), vehicle: saline",150 % of control
same,T/C,"dose: 80.0 mg/kg/injection, schedule: Q01DX009 (ip), vehicle: saline",165 % of control and 172 % of control
same,T/C,"dose: 100.0 mg/kg/injection, schedule: Q01DX009 (ip), vehicle: Klucel (hydroxypropylcellulose) (HPC)",151 % of control
same,T/C,"dose: 100.0 mg/kg/injection, schedule: Q01DX009 (ip), vehicle: other",172 % of control
same,T/C,[2],200 % of control
same,T/C,"dose: 100.0 mg/kg/injection, schedule: Q01DX009 (ip), vehicle: water",106 % of control
same,T/C,[3],113 % of control
same,T/C,"dose: 100.0 mg/kg/injection, schedule: Q04DX003 (ip), vehicle: water",120 % of control
same,T/C,"dose: 120.0 mg/kg/injection, schedule: Q01DX009 (ip), vehicle: saline",155 % of control and 168 % of control
same,T/C,"dose: 180.0 mg/kg/injection, schedule: Q01DX009 (ip), vehicle: saline",159 % of control
same,T/C,"dose: 200.0 mg/kg/injection, schedule: Q01DX009 (ip), vehicle: saline",183 % of control
same,T/C,"dose: 200.0 mg/kg/injection, schedule: Q04DX003 (ip), vehicle: saline",95 % of control
same,T/C,"dose: 240.0 mg/kg/injection, schedule: Q01DX009 (ip), vehicle: saline",90 % of control
same,T/C,"dose: 240.0 mg/kg/injection, schedule: Q04DX003 (ip), vehicle: saline",150 % of control
same,T/C,"dose: 400.0 mg/kg/injection, schedule: Q04DX003 (ip), vehicle: water",92 % of control
same,T/C,"dose: 600.0 mg/kg/injection, schedule: Q04DX003 (ip), vehicle: saline",100 % of control
COc1ccc(-n2nc3c(c2-c2cccnc2)CCc2ccccc2-3)cc1,T/C,"dose: 100.0 mg/kg/injection, schedule: Q04DX003 (ip), vehicle: Klucel (hydroxypropylcellulose) (HPC)",103 % of control
same,T/C,"dose: 200.0 mg/kg/injection, schedule: Q04DX003 (ip), vehicle: Klucel (hydroxypropylcellulose) (HPC)",109 % of control
same,T/C,"dose: 400.0 mg/kg/injection, schedule: Q04DX003 (ip), vehicle: Klucel (hydroxypropylcellulose) (HPC)",105 % of control
O=[N+]([O-])c1ccc(/C=C2\c3ccccc3-c3nc4ccccc4nc32)cc1,T/C,"dose: 150.0 mg/kg/injection, schedule: Q01DX001 (ip), vehicle: other",118 % of control
same,T/C,"dose: 300.0 mg/kg/injection, schedule: Q01DX001 (ip), vehicle: other",86 % of control
O=C(N1CCCC1)C(F)(F)C(F)(F)C(F)(F)F,T/C,[7],90 % of control
same,T/C,[8],99 % of control
Cc1cc(C)c(OC(=O)CNC(=O)C(C)NC(=O)OC(C)(C)C)c(C)c1 (stereo unspecified),T/C,"dose: 50.0 mg/kg/injection, schedule: Q01DX005 (ip), vehicle: Klucel (hydroxypropylcellulose) (HPC)",91 % of control
same,T/C,"dose: 100.0 mg/kg/injection, schedule: Q01DX005 (ip), vehicle: Klucel (hydroxypropylcellulose) (HPC)",97 % of control
same,T/C,"dose: 200.0 mg/kg/injection, schedule: Q01DX005 (ip), vehicle: Klucel (hydroxypropylcellulose) (HPC)",91 % of control
O=C1OC(Cc2ccccc2)(c2ccccc2)c2ccccc21 (stereo unspecified),T/C,[7],90 % of control
same,T/C,[8],90 % of control
CCN(CC)CCCCCNc1cc(OC)cc2c(C)ccnc12,T/C,[4],115 % of control
same,T/C,[2],92 % of control
O=C(/C=C/c1ccc(OCc2ccccc2)cc1)c1ccc(F)cc1,T/C,[7],89 % of control
same,T/C,[8],98 % of control
same,T/C,[9],89 % of control
Cc1cc(-c2ccc(NC(=O)Nc3cccc(F)c3)c(C)c2)ccc1NC(=O)Nc1cccc(F)c1,T/C,"dose: 50.0 mg/kg/injection, schedule: Q01DX005 (ip), vehicle: saline with Tween-80",91 % of control
same,T/C,"dose: 100.0 mg/kg/injection, schedule: Q01DX005 (ip), vehicle: saline with Tween-80",86 % of control
same,T/C,"dose: 200.0 mg/kg/injection, schedule: Q01DX005 (ip), vehicle: saline with Tween-80",86 % of control
COc1cccc(CCNC(=O)CC(=O)O)c1OC,T/C,[5],100 % of control
same,T/C,"dose: 200.0 mg/kg/injection, schedule: Q04DX003 (ip), vehicle: saline with Tween-80",105 % of control
same,T/C,[6],100 % of control
Cc1ccc2c(C)c3ccc4ccccc4c3c[n+]2c1,T/C,"dose: 20.0 mg/kg/injection, schedule: Q04DX003 (ip), vehicle: saline",118 % of control
same,T/C,"dose: 40.0 mg/kg/injection, schedule: Q04DX003 (ip), vehicle: saline",118 % of control
